Test results published in PubChem BioAssay (NCI).
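Step 1: Grow cells in 96-well plates. Step 2: Expose to compound for 48 hours at 5 concentrations. Step 3: Interpolate endpoints linearly; if unreached, use highest concentration. GI50: concentration for 50% inhibition of growth. TGI: total growth inhibition.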

What was measured:
Test in all cases: inhibition of tumour cell growth, NCI panel, 48 h
RPMI-8226 leukemia = test system: RPMI-8226 leukemia
SW-620 colon = test system: SW-620 colon
SF-295 CNS = test system: SF-295 CNS
SK-MEL-5 melanoma = test system: SK-MEL-5 melanoma
SK-MEL-2 melanoma = test system: SK-MEL-2 melanoma
786-0 renal = test system: 786-0 renal
UO-31 renal = test system: UO-31 renal
OVCAR-3 ovarian = test system: OVCAR-3 ovarian
SK-OV-3 ovarian = test system: SK-OV-3 ovarian
SN12C renal = test system: SN12C renal
HS 578T breast = test system: HS 578T breast
DU-145 prostate = test system: DU-145 prostate
NCI-H23 lung = test system: NCI-H23 lung
SK-MEL-28 melanoma = test system: SK-MEL-28 melanoma
MDA-MB-435 = test system: MDA-MB-435
ACHN renal = test system: ACHN renal
UACC-62 melanoma = test system: UACC-62 melanoma
NCI-H226 lung = test system: NCI-H226 lung
MOLT-4 leukemia = test system: MOLT-4 leukemia
SNB-75 CNS = test system: SNB-75 CNS
LOX IMVI melanoma = test system: LOX IMVI melanoma
A498 renal = test system: A498 renal
TK-10 renal = test system: TK-10 renal
M14 melanoma = test system: M14 melanoma
RXF 393 renal = test system: RXF 393 renal
NCI-H522 lung = test system: NCI-H522 lung
U251 CNS = test system: U251 CNS
HCT-15 colon = test system: HCT-15 colon
HCT-116 colon = test system: HCT-116 colon
PC-3 prostate = test system: PC-3 prostate
CAKI-1 renal = test system: CAKI-1 renal
SF-539 CNS = test system: SF-539 CNS
BT-549 breast = test system: BT-549 breast
MDA-MB-231 breast = test system: MDA-MB-231 breast
KM12 colon = test system: KM12 colon
COLO 205 colon = test system: COLO 205 colon
EKVX NSCLC = test system: EKVX NSCLC
SF-268 CNS = test system: SF-268 CNS
OVCAR-4 ovarian = test system: OVCAR-4 ovarian
CCRF-CEM leukemia = test system: CCRF-CEM leukemia
K-562 leukemia = test system: K-562 leukemia
IGROV1 ovarian = test system: IGROV1 ovarian
MALME-3M melanoma = test system: MALME-3M melanoma
MCF7 breast = test system: MCF7 breast
OVCAR-5 ovarian = test system: OVCAR-5 ovarian
HOP-92 NSCLC = test system: HOP-92 NSCLC
UACC-257 melanoma = test system: UACC-257 melanoma
HCC-2998 colon = test system: HCC-2998 colon
T-47D breast = test system: T-47D breast
HOP-62 NSCLC = test system: HOP-62 NSCLC
SNB-19 CNS = test system: SNB-19 CNS
HT29 colon = test system: HT29 colon
OVCAR-8 ovarian = test system: OVCAR-8 ovarian
NCI-H460 lung = test system: NCI-H460 lung
A549 NSCLC = test system: A549 NSCLC

With Cc1ccc2[nH]c(C(=O)NN3C(=O)C(C)SC34CCC(C)CC4)c(-c3ccccc3)c2c1 (stereo not given) the GI50 (RPMI-8226 leukemia) was 11.5 µM, the TGI (RPMI-8226 leukemia) was 52.6 µM and the GI50 (SW-620 colon) was 31.4 µM. It also gave a TGI (SW-620 colon) of 82.6 µM, a GI50 (SF-295 CNS) of 14.3 µM and a TGI (SF-295 CNS) of 32.9 µM. It also gave a GI50 (SK-MEL-5 melanoma) of 18.4 µM, a TGI (SK-MEL-5 melanoma) of 36.3 µM and a GI50 (SK-MEL-2 melanoma) of 17.8 µM. The TGI (SK-MEL-2 melanoma) was 36.7 µM, the GI50 (786-0 renal) was 19 µM and the TGI (786-0 renal) was 52.6 µM. For the same compound, the GI50 (UO-31 renal) was 14 µM, the TGI (UO-31 renal) was 29.4 µM and the GI50 (OVCAR-3 ovarian) was 11.8 µM. For the same compound, the TGI (OVCAR-3 ovarian) was 27.3 µM, the GI50 (SK-OV-3 ovarian) was 33.4 µM and the TGI (SK-OV-3 ovarian) was > 100 µM. For the same compound, the GI50 (SN12C renal) was 13 µM, the TGI (SN12C renal) was 28 µM and the GI50 (HS 578T breast) was 41.8 µM. The TGI (HS 578T breast) was > 100 µM, the GI50 (DU-145 prostate) was 21.8 µM and the TGI (DU-145 prostate) was 54.3 µM. The GI50 (NCI-H23 lung) was 15.2 µM, the TGI (NCI-H23 lung) was 32 µM and the GI50 (SK-MEL-28 melanoma) was 17.8 µM. The TGI (SK-MEL-28 melanoma) was 35.9 µM, the GI50 (MDA-MB-435) was 16.5 µM and the TGI (MDA-MB-435) was 35.4 µM. For the same compound, the GI50 (ACHN renal) was 19.9 µM, the TGI (ACHN renal) was 44.2 µM and the GI50 (UACC-62 melanoma) was 11.8 µM. The TGI (UACC-62 melanoma) was 25.6 µM, the GI50 (NCI-H226 lung) was 17.3 µM and the TGI (NCI-H226 lung) was 35.5 µM. The GI50 (MOLT-4 leukemia) was 7.86 µM, the TGI (MOLT-4 leukemia) was 32.2 µM and the GI50 (SNB-75 CNS) was 24.4 µM. It also gave a TGI (SNB-75 CNS) of 51.4 µM, a GI50 (LOX IMVI melanoma) of 18 µM and a TGI (LOX IMVI melanoma) of 34.8 µM. For the same compound, the GI50 (A498 renal) was 17.2 µM, the TGI (A498 renal) was 35 µM and the GI50 (TK-10 renal) was 14.2 µM. It also gave a TGI (TK-10 renal) of 29.6 µM, a GI50 (M14 melanoma) of 18.2 µM and a TGI (M14 melanoma) of 39 µM. For the same compound, the GI50 (RXF 393 renal) was 13.7 µM, the TGI (RXF 393 renal) was 30.1 µM and the GI50 (NCI-H522 lung) was 13 µM. The TGI (NCI-H522 lung) was 31.1 µM, the GI50 (U251 CNS) was 15.7 µM and the TGI (U251 CNS) was 34.1 µM. It also gave a GI50 (HCT-15 colon) of 19.4 µM, a TGI (HCT-15 colon) of 53.1 µM and a GI50 (HCT-116 colon) of 15.2 µM. It also gave a TGI (HCT-116 colon) of 34.5 µM, a GI50 (PC-3 prostate) of 13.8 µM and a TGI (PC-3 prostate) of 46 µM. It also gave a GI50 (CAKI-1 renal) of 15.6 µM, a TGI (CAKI-1 renal) of 38 µM and a GI50 (SF-539 CNS) of 20.8 µM. It also gave a TGI (SF-539 CNS) of 45.6 µM, a GI50 (BT-549 breast) of 19.4 µM and a TGI (BT-549 breast) of 36.3 µM. It also gave a GI50 (MDA-MB-231 breast) of 15.4 µM, a TGI (MDA-MB-231 breast) of 31.6 µM and a GI50 (KM12 colon) of 15.4 µM. The TGI (KM12 colon) was 35.2 µM, the GI50 (COLO 205 colon) was 17.8 µM and the TGI (COLO 205 colon) was 41.1 µM. It also gave a GI50 (EKVX NSCLC) of 19.6 µM, a TGI (EKVX NSCLC) of 56.1 µM and a GI50 (SF-268 CNS) of 14.9 µM. For the same compound, the TGI (SF-268 CNS) was 35.5 µM, the GI50 (OVCAR-4 ovarian) was 14.8 µM and the TGI (OVCAR-4 ovarian) was 34.7 µM. It also gave a GI50 (CCRF-CEM leukemia) of 20.4 µM, a TGI (CCRF-CEM leukemia) of 79.6 µM and a GI50 (K-562 leukemia) of 16.2 µM. For the same compound, the TGI (K-562 leukemia) was 61.9 µM, the GI50 (IGROV1 ovarian) was 13.6 µM and the TGI (IGROV1 ovarian) was 36.4 µM. It also gave a GI50 (MALME-3M melanoma) of 17 µM, a TGI (MALME-3M melanoma) of 33.4 µM and a GI50 (MCF7 breast) of 17.5 µM. The TGI (MCF7 breast) was > 100 µM, the GI50 (OVCAR-5 ovarian) was 17 µM and the TGI (OVCAR-5 ovarian) was 34.6 µM. The GI50 (HOP-92 NSCLC) was 16.7 µM, the TGI (HOP-92 NSCLC) was 36 µM and the GI50 (UACC-257 melanoma) was 19.1 µM. It also gave a TGI (UACC-257 melanoma) of 44.5 µM, a GI50 (HCC-2998 colon) of 16.6 µM and a TGI (HCC-2998 colon) of 31.7 µM. The GI50 (T-47D breast) was 19.4 µM, the TGI (T-47D breast) was 85.7 µM and the GI50 (HOP-62 NSCLC) was 18.1 µM. For the same compound, the TGI (HOP-62 NSCLC) was 37.7 µM, the GI50 (SNB-19 CNS) was 22.7 µM and the TGI (SNB-19 CNS) was 62.4 µM. The GI50 (HT29 colon) was 13.1 µM, the TGI (HT29 colon) was 29.3 µM and the GI50 (OVCAR-8 ovarian) was 21.2 µM. It also gave a TGI (OVCAR-8 ovarian) of 53.2 µM, a GI50 (NCI-H460 lung) of 15.7 µM and a TGI (NCI-H460 lung) of 43.9 µM. It also gave a GI50 (A549 NSCLC) of 14.3 µM and a TGI (A549 NSCLC) of 31.8 µM.
